Reference: the NIST ThermoML archive (doi:10.1021/acs.jced.6b00803)
± gives the expanded uncertainty stated by the source.

Settings: 298.15 K; 101.33 kPa; Liquid; Vibrating tube method

Row | SMILES | mass density
1 | CCCCCCCCCCCCCCCC [hexadecane] | 770.221 ± 3.1 kg/m3
2 | CCCCCCCCCCCCCC [tetradecane] | 759.275 ± 3 kg/m3
3 | CCCCCCCCCCCC [dodecane] | 745.508 ± 3 kg/m3

Second part, the molecule after the results:

Row | mass density | SMILES
4 | 1051.1 ± 4.2 kg/m3 | CC(=O)OCc1ccccc1 [benzyl ethanoate]
5 | 984.742 ± 4 kg/m3 | CC(=O)CCc1ccccc1 [4-phenyl-2-butanone]
